Test results taken from PubChem BioAssay AID720512 (Broad Institute, 2013).
Activity calls are given as the source filed them. No rule for the calls is given here.

Molecular target: Toxin B (TcdB) glycohydrolase, Clostridioides difficile 630
Experiment: TcdB glycohydrolase inhibitors, dose response, biochemical, cherry-pick, plate reader (AID 720512)
Details: recombinant TcdB glycohydrolase activity; for activity change, negative = inhibition: at 19.5 µM (top of the series)

CCNC(=O)C[C@H]1CC[C@@H]2[C@@H](COc3ccc(NC(=O)c4cccc(OC)c4)cc3C(=O)N2C)O1
AC50: > 39 µM (inactive)

O=C(c1ccc2c(c1)N(Cc1ccccc1)C(=O)c1ccccc1S2)N1CCCC1
activity change, negative = inhibition: inactive

O=S(=O)(Oc1ccccc1/C=N/n1cnnc1)c1ccccc1
AC50: > 39 µM (inactive)

COC(=O)C1=C(c2ccc(OCc3ccccc3)cc2)C[C@@H]2CC[C@H]1N2C(=O)NCCCc1ccccc1
activity change, negative = inhibition: inactive

O=C(O)c1ccccc1NC(=O)N1C[C@H]2C[C@@H](C1)c1cccc(=O)n1C2
activity change, negative = inhibition: inactive

Cc1cc(C)c(NS(=O)(=O)c2cccc3cccnc23)c(C)c1
activity change, negative = inhibition: inactive

Cc1ccc(C(=O)COC(=O)c2cc(=O)[nH]c3ccccc23)cc1
activity change, negative = inhibition: inactive

CNC(=O)C[C@@H]1CC[C@@H]2[C@H](COc3ccc(NS(=O)(=O)c4ccccc4C)cc3C(=O)N2C)O1
activity change, negative = inhibition: inactive

Nc1nc(Nc2ccccc2)n[nH]1
activity change, negative = inhibition: inactive

COc1ccc(NS(=O)(=O)c2cc(N=Nc3c(O)[nH]c(=O)[nH]c3=O)ccc2Cl)cc1
activity change, negative = inhibition: inactive

Cc1cnc(C(=O)OCC(=O)N2C(C)CCCC2C)cn1 (stereo not given)
activity change, negative = inhibition: inactive

Cc1cc(N/N=C/c2ccc(O)cc2O)nc(N2CCOCC2)n1
activity change, negative = inhibition: inactive

CN(c1ccccc1)S(=O)(=O)c1cccc(C(=O)NCCc2ccc(O)c(O)c2)c1
activity change, negative = inhibition: inactive

COCc1c(Br)c(C)nc(OCC(=O)N/N=C/c2ccc(C)o2)c1C#N
activity change, negative = inhibition: inactive

Cc1cc(C)nc(/N=C(\N)Nc2ccccc2-c2ccccc2)n1
activity change, negative = inhibition: inactive

NC1=NC[C@H](Cc2ccc(O)cc2)N1CCc1cc(C(F)(F)F)cc(C(F)(F)F)c1
activity change, negative = inhibition: inactive

CNc1cncc(-c2ccc(O)cc2)n1
AC50: > 39 µM (inactive)

COc1cc(/C=N/NC(=O)CSc2ccccn2)ccc1O
activity change, negative = inhibition: inactive

O=C(N/N=C/c1ccc(O)cc1)NC12CC3CC(CC(C3)C1)C2
activity change, negative = inhibition: inactive

COc1cc(OC)c(OC)cc1/C=C/c1ccnc2ccccc12
activity change, negative = inhibition: inactive

COc1cc(-c2noc(C)c2C#CC2(O)CCCCC2)cc(OC)c1OC
activity change, negative = inhibition: inactive

CCOC(=O)/C(=N/Nc1ccc(Br)cc1)N1CC(C)OC(C)C1 (stereo not given)
AC50: 6.61 µM

Cc1cc(-c2ccc(NS(=O)(=O)c3ccccc3)c(C)c2)ccc1NS(=O)(=O)c1ccccc1
activity change, negative = inhibition: inactive

C[C@H]1CN([C@@H](C)CO)S(=O)(=O)c2ccc(-c3ccncc3)cc2O[C@H]1CN(C)Cc1ccc(Oc2ccccc2)cc1
activity change, negative = inhibition: inactive

Cc1ccc(S(=O)(=O)Oc2ccccc2/C=C2/SC(=O)NC2=O)cc1
activity change, negative = inhibition: inactive

CCCCNS(=O)(=O)c1ccc(OCC(=O)OC)cc1
activity change, negative = inhibition: inactive

CC(C)(C)N1C(=O)c2ccc(C(=O)Nc3ccc(O)cc3)cc2C1=O
activity change, negative = inhibition: inactive

Cc1onc(-c2ccccc2Cl)c1C(=O)Nc1cnn(Cc2ccccc2)c1
activity change, negative = inhibition: inactive

O=c1c2ccc(Cl)cc2[nH]c(=S)n1-c1cccnc1
activity change, negative = inhibition: inactive

CCOC(CCNC(=O)c1cn(CCOC)c(=O)c2c1c1ccccc1n2C)OCC
activity change, negative = inhibition: inactive
